In US8962674B2 (Tokyo Institute of Technology, priority 2006, dated 2015):
pIC50: −log10 of the molar value.

Key:
aggregated Aβ1-42 = aggregated Aβ1-42 (Homo sapiens (Human), UniProt P05067); test: Aβ1-42 degradation assay on pre-formed aggregates, thioflavin T fluorescence (Test Example 3); format: biochemical; settings: aggregated Aβ, 1 hr at 37° C., read-out: IC50 (Aβ1-42 aggregate degradation, Table 2 head)
Description: Aβ1-42 (Peptide Institute) was dissolved in a 0.1% NH3 solution at a concentration of 60 μM, and incubated for 24 hr at 37° C. to form the aggregation. 25 μM of the aggregated Aβ solution diluted by 100 mM phosphate buffer (pH 7.4) and the compound dilution containing 2% DMSO were mixed in equal amount. The mixtures were incubated for 1 hr at 37° C. in a black 96-well plate. After incubation, 6 μM thioflavin T (Sigma) in 100 mM of glycine-NaOH buffer, pH 8.5, was added, and fluorescence was measured for excitation at 440 nm and emission at 486 nm. The solution with DMSO only, instead of the compound solution, was used as a negative control. The activity was calculated as a percentage of the negative control.

Aβ1-42 = Aβ1-42 (Homo sapiens (Human), UniProt P05067); test: Aβ aggregation inhibition assay, thioflavin T fluorescence (Test Example 2); format: biochemical; settings: 24 hr at 37° C.
Sequence of Aβ1-42 (P05067 672-713): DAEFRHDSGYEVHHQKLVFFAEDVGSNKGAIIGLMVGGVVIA
Description: Aβ3-42 aggregation Inhibition Assay
Aβ1-42 was dissolved in a 0.1% NH3 solution at a concentration of 100 μM and centrifuged for 1.5 hr at 200,000 g, and the supernatant are used in the assay. […] The mixtures were incubated for 24 hr at 37° C. in a black 96-well plate.

[1] = tested on: cerebral cortex cells of embryonic Wistar rat; test: Cytoprotection from Aβ1-42-induced cell cytotoxicity, MTT (Test Example 4); format: cell-based; settings: compound 24 hr, then 5 μM Aβ1-42 for 48 hr
Description: Cytoprotection from Aβ1-42-Induced Cell Cytotoxicity
Cerebral cortex was obtained from 19-20 day-old embryonic Wistar rat. The tissue was minced, dissociated using scalpel blades and Pasteur pipette, and centrifuged at 100 rpm. Precipitated cells were filtered using […] cell strainer, and single cells were prepared. These cells were suspended in Eagle's Minimum Essential Medium (EMEM) containing 10% Fetal bovine serum, and plated into 48-well tissue culture plates (Becton Dickinson) at 200 μL/well and 1.7×10^5 cells/cm^2. Cultures were incubated at 37° C. in a humidified atmosphere of 5% CO2.
After 3, 5, and 7 days in culture, the medium was replaced.
After 9 days, compounds were dissolved in DMSO and diluted in culture media so that the final concentration of DMSO in culture media was 0.1%, and each solution was added to each well at […] for 24 hr. The control solution contained 0.1% DMSO.
After 24 hr, Aβ1-42 was dissolved in a 0.1% NH3 solution at a concentration of 500 μM and diluted in culture media to a final concentration of 5 μM, and the Aβ solution was added to each well at […] for 48 hr. After 48 hr, cultures were treated with 0.5% MTT solution (Nacalai Tesque) for 35 min. The MTT solution was replaced with 2-propanol (200 μL), and the culture plates were shook to dissolve formazan. Absorption of the solution was measured at 570 nm.

Sequence of aggregated Aβ1-42 (P05067 672-713): as above

Row | pIC50 (aggregated Aβ1-42) | melting point [°C] | pIC50 (Aβ1-42) | SMILES | MEC, minimal effective concentration (cytoprotection) [1] [µM]
1 | 5.48 | 117 to 120 |  | COc1cc(/C=C/C(=O)CC(=O)/C=C/c2ccc(S(C)(=O)=O)cc2)ccc1O [CU005, (1E,6E)-1-(4-hydroxy-3-methoxyphenyl)-7-(4-methanesulfonylphenyl)hepta-1,6-diene-3,5-dione] | 
2 | 6.40 |  |  | COc1cc(/C=C/C(=O)CC(=O)/C=C/c2ccc(N(C)C)c3ccccc23)ccc1O [CU019, (1E,6E)-1-(4-dimethylaminonaphthalen-1-yl)-7-(4-hydroxy-3-methoxyphenyl)hepta-1,6-diene-3,5-dione] | 
3 | 5.28 | 83 to 87 |  | COc1cc(/C=C/C(=O)CC(=O)/C=C/c2ccc[nH]2)ccc1O [CU022, (1E,6E)-1-(4-hydroxy-3-methoxyphenyl)-7-(1H-pyrrol-2-yl)hepta-1,6-diene-3,5-dione] | 
4 |  | 150 to 152 | 6.55 | Cc1ccc(/C=C/C(=O)CC(=O)/C=C/c2ccc(O)cc2)cc1C [CU056, (1E,6E)-1-(3,4-dimethylphenyl)-7-(4-hydroxyphenyl)hepta-1,6-diene-3,5-dione] | 
5 |  | 217 | 7.05 | O=C(/C=C/c1ccc(O)cc1)CC(=O)/C=C/c1cccc(O)c1 [CU078, (1E,6E)-1-(3-hydroxyphenyl)-7-(4-hydroxyphenyl)hepta-1,6-diene-3,5-dione] | 0.1
6 |  | 100 to 105 | 6.06 | COc1cc(N(C)C)ccc1/C=C/C(=O)CC(=O)/C=C/c1ccc(O)cc1 [CU153, (1E,6E)-1-(4-dimethylamino-2-methoxyphenyl)-7-(4-hydroxyphenyl)hepta-1,6-diene-3,5-dione] | 
7 |  | 183 to 186 | 5.96 | COc1ccc(O)cc1/C=C/C(=O)CC(=O)/C=C/c1ccc(O)cc1 [CU177, (1E,6E)-1-(4-hydroxyphenyl)-7-(5-hydroxy-2-methoxyphenyl)hepta-1,6-diene-3,5-dione] | 
